The values below come from US10329296B2, “Indole derivatives” (Richter Gedeon Nyrt., priority 2015, dated 2019).

The experiment has as its target human MCH1 receptor (Homo sapiens, UniProt Q99705). Briefly: MCHR1 antagonism functional assay, measuring cytoplasmic calcium concentration ([Ca2+]i).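 Also: human MCH1 AequoScreen cells loaded with calcium-sensitive fluorescent dye, compounds preincubated one hour, then MCH given at its EC80, inhibition of ΔF/F rise relative to DMSO vehicle.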

Structures can show the parent of a compound that is named as a salt.

In general, IC50 refers to the concentration needed to halve the response being measured.

Sequence of human MCH1 receptor (Q99705 whole entry): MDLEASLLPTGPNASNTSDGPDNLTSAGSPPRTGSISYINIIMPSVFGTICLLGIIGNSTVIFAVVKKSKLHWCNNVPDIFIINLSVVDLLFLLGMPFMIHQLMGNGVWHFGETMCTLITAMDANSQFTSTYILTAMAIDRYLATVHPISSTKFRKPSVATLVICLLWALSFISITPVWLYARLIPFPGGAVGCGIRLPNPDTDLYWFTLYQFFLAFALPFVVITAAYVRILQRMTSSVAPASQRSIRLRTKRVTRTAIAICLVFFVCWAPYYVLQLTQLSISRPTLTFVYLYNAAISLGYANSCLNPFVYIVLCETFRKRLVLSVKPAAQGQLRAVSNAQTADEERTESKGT
Protocol: Evaluation of MCHR1 Antagonism in Functional Assay
Cells: human MCH1 (SLC1) AequoScreen® Cell Line (Perkin Elmer ES-370-A, lot No: M4W-A2)
MCH was dissolved in MilliQ water (1 mM), aliquots were taken from the stock solution, and were kept at −20° C. One aliquot was used only once.
Assay buffer: HBSS+2 mM probenecid, pH=7.4
Measuring of Cytoplasmic Calcium Concentration ([Ca^2+]i):
On the day of measurement the culture medium was removed from the cells and a fluorescent Ca^2+-sensitive dye (FLIPR Calcium 5 kit, Molecular Devices R8186) was added to the cells at a 4× dilution compared to the recommended dilution by the manufacturer, in a volume of 100 μl/well, and cells were incubated at 37° C. for 10 min. […] The vehicle (DMSO, control treatment), or the buffer containing test compounds were added to the cells in a volume of 50 μl/well, and cells were incubated at 37° C. for further 60 min.
1 mM stock solution was made from the agonist in distilled water, this solution was distributed into aliquots, which were kept at −20° C. until use. One aliquot was used only once. Fluorescence was detected before addition of MCH for 20 s, and after addition of MCH for 40 s. MCH was applied at an EC80 concentration, the EC80-values were determined individually for every plate/experiment. For this whole MCH dose-response curves were determined on one part of the plate, 4 parameter sigmoidal curves were fitted to the experimental data by nonlinear regression, MCH EC80 values were derived from the fitted curve. The raw fluorescence data were converted into ΔF/F values (the maximum fluorescence value obtained after addition of MCH was normalized to the baseline fluorescence: ΔF/F=(Fmax−Fbaseline)/Fbaseline). […] IC50 values of the tested compounds were determined by fitting 4 parameter sigmoidal curves to inhibition % data. Data processing, including fitting curves by nonlinear regression, was done by SoftMaxPro software.

`CCN1CCc2cc3cc(-n4ccc(OCc5ccc(OC)cc5)cc4=O)ccc3n2CC1` [Example 14, 1-{3-ethyl-1H,2H,3H,4H,5H-[1,4]diazepino[1,7-a]indol-9-yl}-4-[(4-methoxyphenyl)methoxy]-1,2-dihydropyridin-2-one]: the 50% inhibitory concentration (IC50) was found to be 7.9 nM. For the compound `CCN1CCc2cc3cc(-n4ccc(OCc5ccc(Cl)cn5)cc4=O)ccc3n2CC1` [Example 15, 4-[(5-chloropyridin-2-yl)methoxy]-1-{3-etil-1H,2H,3H,4H,5H-[1,4]diazepino[1,7-a]indol-9-yl}-1,2-dihydropyridin-2-one], the IC50 was determined as 6.5 nM. To `CCN1CCc2cc3cc(-n4ccc(OCc5ccc(F)cc5)cc4=O)ccc3n2CC1` [Example 16, 1-{3-ethyl-1H,2H,3H,4H,5H-[1,4]diazepino[1,7-a]indol-9-yl}-4-[(4-fluorophenyl)methoxy]-1,2-dihydropyridin-2-one] belongs 7.2 nM; to `CC(=O)N1CCc2cc3cc(-n4ccc(OCc5ccc(Cl)cn5)cc4=O)ccc3n2CC1` [Example 17, 1-{3-acetyl-1H,2H,3H,4H,5H-[1,4]diazepino[1,7-a]indol-9-yl}-4-[(5-chloropyridin-2-yl)methoxy]-1,2-dihydropyridin-2-one], 18.9 nM. On to `CC(C)N1CCc2cc3cc(-n4ccc(OCc5ccc(F)cn5)cc4=O)ccc3n2CC1` [Example 18, 4-[(5-fluoropyridin-2-yl)methoxy]-1-[3-(propan-2-yl)-1H,2H,3H,4H,5H-[1,4]diazepino[1,7-a]indol-9-yl]-1,2-dihydropyridin-2-one maleic acid salt], for which the IC50 is 15.2 nM.

Take `CC(C)N1CCc2cc3cc(-n4ccc(OCc5ccccc5)cc4=O)ccc3n2CC1` [Example 19, 4-(benzyloxy)-1-[3-(propan-2-yl)-1H,2H,3H,4H,5H-[1,4]diazepino[1,7-a]indol-9-yl]-1,2-dihydropyridin-2-one hydrochloride salt]: the half-inhibitory concentration (IC50) is 8.2 nM. Regarding `CC(C)N1CCc2cc3cc(-n4ccc(OCc5ccc(Cl)cn5)cc4=O)ccc3n2CC1` [Example 20, 4-[(5-chloropyridin-2-yl)methoxy]-1-[3-(propan-2-yl)-1H,2H,3H,4H,5H-[1,4]diazepino[1,7-a]indol-9-yl]-1,2-dihydropyridin-2-one maleic acid salt], the IC50 is 6.2 nM.

`CC(C)N1CCc2cc3cc(-n4ccc(OCc5ccc(F)cc5)cc4=O)ccc3n2CC1` [Example 21, 4-[(4-fluorophenyl)methoxy]-1-[3-(propan-2-yl)-1H,2H,3H,4H,5H-[1,4]diazepino[1,7-a]indol-9-yl]-1,2-dihydropyridin-2-one]: the IC50 was 8 nM. To `CC(C)N1CCc2cc3cc(-n4ccc(OCc5ccc(Cl)cc5)cc4=O)ccc3n2CC1` [Example 22, 4-[(4-chlorophenyl)methoxy]-1-[3-(propan-2-yl)-1H,2H,3H,4H,5H-[1,4]diazepino[1,7-a]indol-9-yl]-1,2-dihydropyridin-2-one maleic acid salt] belongs 7.2 nM; to `CC(C)N1CCc2cc3cc(-n4ccc(OCc5ccccc5F)cc4=O)ccc3n2CC1` [Example 23, 4-[(2-fluorophenyl)methoxy]-1-[3-(propan-2-yl)-1H,2H,3H,4H,5H-[1,4]diazepino[1,7-a]indol-9-yl]-1,2-dihydropyridin-2-one hydrochloride salt], 15.7 nM; to `CC(C)N1CCc2c(Cl)c3cc(-n4ccc(OCc5ccc(Cl)cn5)cc4=O)ccc3n2CC1` [Example 24, 1-[11-chloro-3-(propan-2-yl)-1H,2H,3H,4H,5H-[1,4]diazepino[1,7-a]indol-9-yl]-4-[(5-chloropyridin-2-yl)methoxy]-1,2-dihydropyridin-2-one maleic acid salt], 18.5 nM. For `CC(C)N1CCc2c(Br)c3cc(-n4ccc(OCc5ccc(Cl)cn5)cc4=O)ccc3n2CC1` [Example 25, 1-[11-bromo-3-(propan-2-yl)-1H,2H,3H,4H,5H-[1,4]diazepino[1,7-a]indol-9-yl]-4-[(5-chloropyridin-2-yl)methoxy]-1,2-dihydropyridin-2-one maleic acid salt], the IC50 turned out to be 30.7 nM. To `CC(C)N1CCc2c(I)c3cc(-n4ccc(OCc5ccc(Cl)cn5)cc4=O)ccc3n2CC1` [Example 26, 4-[(5-chloropyridin-2-yl)methoxy]-1-[11-iodo-3-(propan-2-yl)-1H,2H,3H,4H,5H-[1,4]diazepino[1,7-a]indol-9-yl]-1,2-dihydropyridin-2-one maleic acid salt] belongs 38.8 nM. Take `CC(C)N1CCc2c(Cl)c3cc(-n4ccc(OCc5ccccc5)cc4=O)ccc3n2CC1` [Example 27, 4-(benzyloxy)-1-[11-chloro-3-(propan-2-yl)-1H,2H,3H,4H,5H-[1,4]diazepino[1,7-a]indol-9-yl]-1,2-dihydropyridin-2-one hydrochloride salt]: the concentration for half-maximal inhibition (IC50) was 29.9 nM.

Take `O=c1cc(OCc2ccc(Cl)cn2)ccn1-c1ccc2c(c1)cc1n2CCN(CC2CC2)CC1` [Example 28, 4-[(5-chloropyridin-2-yl)methoxy]-1-[3-(cyclopropylmethyl)-1H,2H,3H,4H,5H-[1,4]diazepino[1,7-a]indol-9-yl]-1,2-dihydropyridin-2-ond maleic acid salt]: the half-maximal inhibitory concentration (IC50) was determined as 6.2 nM. In the case of `O=c1cc(OCc2ccccc2)ccn1-c1ccc2c(c1)cc1n2CCN(C2CC2)CC1` [Example 29, 4-(benzyloxy)-1-{3-cyclopropyl-1H,2H,3H,4H,5H-[1,4]diazepino[1,7-a]indol-9-yl}-1,2-dihydropyridin-2-one maleic acid salt], the IC50 worked out at 12.9 nM. Take `O=c1cc(OCc2ccc(Cl)cn2)ccn1-c1ccc2c(c1)cc1n2CCN(C2CC2)CC1` [Example 30, 4-[(5-chloropyridin-2-yl)methoxy]-1-{3-cyclopropyl-1H,2H,3H,4H,5H-[1,4]diazepino[1,7-a]indol-9-yl}-1,2-dihydropyridin-2-one maleic acid salt]: the IC50 was determined as 17.2 nM. To `O=c1cc(OCc2ccc(Cl)cn2)ccn1-c1ccc2c(c1)cc1n2CCN(C2CCC2)CC1` [Example 31, 4-[(5-chloropyridin-2-yl)methoxy]-1-(3-cyclobutyl-1H,2H,3H,4H,5H-[1,4]diazepino[1,7-a]indol-9-yl)-1,2-dihydropyridin-2-one maleic acid salt] belongs 12.3 nM. To `Cc1c2n(c3ccc(-n4ccc(OCc5ccc(Cl)cn5)cc4=O)cc13)CCN(C(C)C)CC2` [Example 34, 4-[(5-chloropyridin-2-yl)methoxy]-1-[11-methyl-3-(propan-2-yl)-1H,2H,3H,4H,5H-[1,4]diazepino[1,7-a]indol-9-yl]-1,2-dihydropyridin-2-one maleic acid salt] belongs 14.3 nM.
